According to patent US12018011B2, “Macrocyclic compounds and compositions, and methods of preparing and using the same” (Kura Oncology, Inc., priority 2021, dated 2024):

target: T1, Recombinant human farnesyl transferase (FTase) (Homo sapiens, UniProt P49356); assay: FTase fluorescence assay (farnesylation of dansyl-GCVLS peptide); format: biochemical; settings: recombinant human FTase 2.5 nM, Dansyl-GCVLS 85 nM, FPP 30 nM, 30° C., 50 minutes
T1 construct: purchased Crelux (Martinsried, Germany)
Source text: T24/83 cell line was purchased from the European Collection of Authenticated Cell Cultures (Salisbury, UK). Recombinant human farnesyl transferase (FTase) and geranylgeranyl transferase type-1 (GGTase) were obtained from Crelux (Martinsried, Germany). Dansyl labelled GCVLS peptide was purchased from Bachem (Torrance, CA), and Dansyl labelled GCVLL peptide was purchased from Bio Synthesis (Lewisville, TX). Farnesyl Pyrophosphate (FPP) and Geranylgeranyl pyrophosphate (GGPP) were purchased from Cayman (Ann Arbor, MI).
Specific biochemical activity of the compounds disclosed herein as FTase inhibitors was determined by measuring the ability of the compounds to block the farnesylation by recombinant FTase of fluorescent (i.e., dansyl-labeled) test substrates derived from the CAAX box of farnesylated proteins, such as the peptide GCVLS.
The IC50 value of the compounds disclosed herein as inhibitors of Ftase and/or GGTase, was determined by measuring the concentration (provided in nM) necessary to achieve inhibition of enzyme activity by 50% (IC50). […] Compounds having a low IC50 value against FTase, for example an IC50 (FTase)<100 nM, such as an IC50 (FTase)<10 nM, are preferred. Compounds having a low IC50 value against FTase and a high IC50 value against GGTase, for example an IC50 (FTase)<100 nM, such as an IC50 (FTase)<10 nM, and an IC50 (GGTase)>100 nM, are potent and selective inhibitors of FTase, and are particularly preferred.
The inhibition activities of the compounds disclosed herein against Ftase and GGTase were measured in the respective fluorescence assays as follows:
For the FTase assay, recombinant human FTase (2.5 nM), Dansyl labelled GCVLS peptide (85 nM), FPP (30 nM) and inhibitor were mixed in assay buffer (50 mM Tris, pH 7.5, 10 mM magnesium chloride, 10 μM zinc chloride, 0.08% CHAPS, 5 mM dithiothreitol) and incubated in a total volume of 20 μL at 30° C. for 50 minutes.
For both the FTase assay and GGTase assay, fluorescence intensity was detected (excitation at 340 nm and emission at 486 nm) using EnVision (PerkinElmer; Waltham, MA), IC50 determinations were performed using a sigmoidal dose-response model with Xlfit software (IDBS, Inc.; Boston, MA), and tipifarnib was used as a positive control. All the assay plates for each assay passed the QC criteria (S/B, Z factor).

Row | SMILES | IC50 [nM]
1 | [2H]C([2H])([2H])n1c(=O)cc2c3cc(ccc31)[C@](N)(c1cncn1C)c1ccc(C#N)c(c1)COc1cccc-2c1 (racemic) [(R)-56, (R)-3-amino-2^1-(methyl-d3)-3-(1-methyl-1H-imidazol-5-yl)-2^2-oxo-2^1,2^2-dihydro-6-oxa-2(4,6)-quinolina-1,4(1,3)-dibenzenacyclohexaphane-4^4-carbonitrile] | > 100
2 | Cn1cncc1[C@]1(N)c2ccc(C#N)c(c2)COc2cccc(c2)-c2cc(=O)n(C3CC3)c3ccc1cc23 (racemic) [(R)-57, (R)-3-amino-21-cyclopropyl-3-(1-methyl-1H-imidazol-5-yl)-2^2-oxo-2^1,2^2-dihydro-6-oxa-2(4,6)-quinolina-1,4(1,3)-dibenzenacyclohexaphane-4^4-carbonitrile] | > 100
3 | Cn1cncc1[C@]1(N)c2ccc(C#N)c(c2)COc2cccc(c2)-c2cc(C#N)nc3ccc1cc23 (racemic) [(R)-58, (R)-3-amino-3-(1-methyl-1H-imidazol-5-yl)-6-oxa-2(4,6)-quinolina-1,4(1,3)-dibenzenacyclohexaphane-2^2,4^4-dicarbonitrile] | 10 to 100
4 | Cn1cncc1[C@]1(N)c2ccc(C#N)c(c2)COc2cccc(c2)-c2cc(N3CCOCC3)nc3ccc1cc23 (racemic) [(R)-66, (R)-3-amino-3-(1-methyl-1H-imidazol-5-yl)-2^2-morpholino-6-oxa-2(4,6)-quinolina-1,4(1,3)-dibenzenacyclohexaphane-4^4-carbonitrile] | ≤ 10
5 | [2H]C([2H])([2H])n1cncc1[C@]1(N)c2ccc(C#N)c(c2)COc2cccc(c2)-c2cc(C#N)nc3ccc1cc23 (racemic) [(R)-70, (R)-3-amino-3-(1-(methyl-d3)-1H-imidazol-5-yl)-6-oxa-2(4,6)-quinolina-1,4(1,3)-dibenzenacyclohexaphane-2^2,4^4-dicarbonitrile] | 10 to 100
6 | Cn1cncc1[C@]1(O)c2ccc(C#N)c(c2)CCc2cccc(c2)-c2cc(=O)n(C)c3ccc1cc23 (racemic) [(S)-6, (S)-3-hydroxy-2^1-methyl-3-(1-methyl-1H-imidazol-5-yl)-2^2-oxo-2^1,2^2-dihydro-2(4,6)-quinolina-1,4(1,3)-dibenzenacyclohexaphane-4^4-carbonitrile] | > 100
7 | Cn1cncc1[C@]1(N)c2ccc(C#N)c(c2)CCc2cccc(c2)-c2cc(=O)n(C)c3ccc1cc23 (racemic) [(S)-7, (S)-3-amino-2^1-methyl-3-(1-methyl-1H-imidazol-5-yl)-22-oxo-2^1,2^2-dihydro-2(4,6)-quinolina-1,4(1,3)-dibenzenacyclohexaphane-4^4-carbonitrile] | > 100
8 | [2H]C([2H])([2H])n1c(=O)cc2c3cc(ccc31)[C@](N)(c1cncn1C)c1ccc(C#N)c(c1)CCc1cccc-2c1 (racemic) [(S)-8, (S)-3-amino-2^1-(methyl-d3)-3-(1-methyl-1H-imidazol-5-yl)-22-oxo-2^1,2^2-dihydro-2(4,6)-quinolina-1,4(1,3)-dibenzenacyclohexaphane-4^4-carbonitrile] | > 100
9 | Cn1cncc1[C@]1(N)c2ccc(C#N)c(c2)CCc2cccc(c2)-c2cc(C#N)nc3ccc1cc23 (racemic) [(S)-9, (S)-3-amino-3-(1-methyl-1H-imidazol-5-yl)-2(4,6)-quinolina-1,4(1,3)-dibenzenacyclohexaphane-2^2,4^4-dicarbonitrile] | > 100
10 | [2H]C([2H])([2H])n1c(=O)cc2c3cc(ccc31)[C@@H](n1cncc1C)c1ccc(Cl)c(c1)COc1cccc-2c1 [(R)-76, (R)-4^4-chloro-2^1-(methyl-d3)-3-(5-methyl-1H-imidazol-1-yl)-2^1,2^2-dihydro-6-oxa-2(4,6)-quinolina-1,4(1,3)-dibenzenacyclohexaphan-2^2-one] | 10 to 100
11 | [2H]C([2H])([2H])n1c(=O)cc2c3cc(ccc31)[C@@H](n1cnc(C)c1)c1ccc(Cl)c(c1)COc1cccc-2c1 [(R)-77, (R)-4^4-chloro-2^1-(methyl-d3)-3-(4-methyl-1H-imidazol-1-yl)-2^1,2^2-dihydro-6-oxa-2(4,6)-quinolina-1,4(1,3)-dibenzenacyclohexaphan-2^2-one] | 10 to 100
12 | [2H]C([2H])([2H])n1cncc1[C@]1(O)c2ccc(C#N)c(c2)COc2cccc(c2)-c2cc(C#N)nc3ccc1cc23 [(R)-078, (R)-3-hydroxy-3-(1-(methyl-d3)-1H-imidazol-5-yl)-6-oxa-2(4,6)-quinolina-1,4(1,3)-dibenzenacyclohexaphane-2^2 4^4-dicarbonitrile] | 10 to 100
13 | [2H]C([2H])([2H])n1c(=O)cc2c3cc(ccc31)[C@@H](n1ncnc1C)c1ccc(Cl)c(c1)COc1cccc-2c1 [(R)-079, (R)-4^4-chloro-2^1-(methyl-d3)-3-(5-methyl-1H-1,2,4-triazol-1-yl)-2^1,2^2-dihydro-6-oxa-2(4,6)-quinolina-1,4(1,3)-dibenzenacyclohexaphan-2^2-one] | 10 to 100
14 | [2H]C([2H])([2H])n1c(=O)cc2c3cc(ccc31)[C@@H](n1cnc(C)n1)c1ccc(Cl)c(c1)COc1cccc-2c1 [(R)-080, (R)-4^4-chloro-2^1-(methyl-d3)-3-(3-methyl-1H-1,2,4-triazol-1-yl)-2^1,2^2-dihydro-6-oxa-2(4,6)-quinolina-1,4(1,3)-dibenzenacyclohexaphan-2^2-one] | 10 to 100
15 | Cn1cncc1[C@]1(N)c2ccc(C#N)c(c2)COc2cccc(c2)-c2nccc3ccc1cc23 [(R)-86, (R)-3-amino-3-(1-methyl-1H-imidazol-5-yl)-6-oxa-2(1,7)-isoquinolina-1,4(1,3)-dibenzenacyclohexaphane-4^4-carbonitrile] | > 100
16 | Cn1cncc1[C@]1(N)c2ccc(C#N)c(c2)COc2cccc(c2)-c2cc(OC3COC3)nc3ccc1cc23 [(R)-89, (R)-3-amino-3-(1-methyl-1H-imidazol-5-yl)-2^2-(oxetan-3-yloxy)-6-oxa-2(4,6)-quinolina-1,4(1,3)-dibenzenacyclohexaphane-4^4-carbonitrile] | 10 to 100
17 | Cc1cn([C@H]2c3ccc(C#N)c(c3)COc3cccc(c3)-c3cc(C#N)nc4ccc2cc34)cn1 [(R)-90, (R)-3-(4-methyl-1H-imidazol-1-yl)-6-oxa-2(4,6)-quinolina-1,4(1,3)-dibenzenacyclohexaphane-2^2,4^4-dicarbonitrile] | 10 to 100
18 | Cn1cncc1[C@@]1(N)c2ccc(C#N)c(c2)COc2cccc(c2)-c2cc(N3CCOCC3)nc3ccc1cc23 [(S)-66, (S)-3-amino-3-(1-methyl-1H-imidazol-5-yl)-2^2-morpholino-6-oxa-2(4,6)-quinolina-1,4(1,3)-dibenzenacyclohexaphane-4^4-carbonitrile] | ≤ 10
19 | [2H]C([2H])([2H])n1cncc1[C@@]1(N)c2ccc(C#N)c(c2)COc2cccc(c2)-c2cc(C#N)nc3ccc1cc23 [(S)-70, (S)-3-amino-3-(1-(methyl-d3)-1H-imidazol-5-yl)-6-oxa-2(4,6)-quinolina-1,4(1,3)-dibenzenacyclohexaphane-2^2 4^4-dicarbonitrile] | ≤ 10
20 | [2H]C([2H])([2H])n1c(=O)cc2c3cc(ccc31)[C@H](n1cncc1C)c1ccc(Cl)c(c1)COc1cccc-2c1 [(S)-76, (S)-4^4-chloro-2^1-(methyl-d3)-3-(5-methyl-1H-imidazol-1-yl)-2^1,2^2-dihydro-6-oxa-2(4,6)-quinolina-1,4(1,3)-dibenzenacyclohexaphan-2^2-one] | 10 to 100
21 | [2H]C([2H])([2H])n1c(=O)cc2c3cc(ccc31)[C@H](n1cnc(C)c1)c1ccc(Cl)c(c1)COc1cccc-2c1 [(S)-77, (S)-4^4-chloro-2^1-(methyl-d3)-3-(4-methyl-1H-imidazol-1-yl)-2^1,2^2-dihydro-6-oxa-2(4,6)-quinolina-1,4(1,3)-dibenzenacyclohexaphan-2^2-one] | 10 to 100
22 | [2H]C([2H])([2H])n1cncc1[C@@]1(O)c2ccc(C#N)c(c2)COc2cccc(c2)-c2cc(C#N)nc3ccc1cc23 [(S)-078, (S)-3-hydroxy-3-(1-(methyl-d3)-1H-imidazol-5-yl)-6-oxa-2(4,6)-quinolina-1,4(1,3)-dibenzenacyclohexaphane-2^2 4^4-dicarbonitrile] | ≤ 10
23 | [2H]C([2H])([2H])n1c(=O)cc2c3cc(ccc31)[C@H](n1ncnc1C)c1ccc(Cl)c(c1)COc1cccc-2c1 [(S)-079, (S)-4^4-chloro-2^1-(methyl-d3)-3-(5-methyl-1H-1,2,4-triazol-1-yl)-2^1,2^2-dihydro-6-oxa-2(4,6)-quinolina-1,4(1,3)-dibenzenacyclohexaphan-2^2-one] | > 100
